Read-outs that look alike come from different tables or passages of the source.
Key:
[1] = molecular target: T1, Cyclin Dependent Kinase 1/Cyclin A2 (CDK1-cycA2) (Homo sapiens, UniProt P06493); assay: CDK1-cycA2 TR-FRET (Lance) enzyme assay; format: biochemical; details: for Ki: enzymatic assay
T1 construct: purchased ProQinase 0134-0054-1
Method: (§1) Cyclin Dependent Kinase 1/Cyclin A2 (CDK1-cycA2), Cyclin Dependent Kinase 2/Cyclin E1 (CDK2-cycE1), Cyclin Dependent Kinase 4/Cyclin D3 (CDK4-cycD3) and Cyclin Dependent Kinase 6/Cyclin D3 (CDK6-cycD3) enzyme assays were carried out as described below.
(1) CDK1-cycA2 TR-FRET (Lance®)
(§2) An Echo acoustic dispenser is used to create dose responses of compound dissolved in DMSO into a 384-well microplate. A 5 μL volume of enzyme mix is added to the well, and pre-incubated with compound for 30 minutes. […] Buffer conditions are 50 mM HEPES, pH 7.5, 10 mM MgCl2, 2 mM TCEP, 0.05% BGG and 0.01% Brij 35. The reaction is quenched with 5 μL of EDTA in detection buffer (15 mM [EDTA final]). Finally, a 5 μL TR-FRET detection mix is added to the quenched reaction, which includes Europium labeled anti-phospho-4E-BP1. […] Signal is a ratio of the Acceptor and Donor fluorescence. Inhibition constants are calculated via the Morrison equation.

[2] = molecular target: T2, Cyclin Dependent Kinase 2/Cyclin E1 (CDK2-cycE1) (Homo sapiens, UniProt P24941); assay: CDK2-cycE1 TR-FRET (LANCE) enzyme assay; format: biochemical; details: for FS CDK1/CDK2 / FS CDK4/CDK2: fold selectivity; for increased fold-selectivity CDK4/CDK2 over Comparator C: (+) sign after FS CDK4/CDK2;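 as to improvement in potency against CDK2 (Ki) over Comparator C: fold lower CDK2 Ki than comparator c (Ki 0.032 µM)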
T2 construct: purchased ProQinase 0050-0055-1
Method: as §1
(ii) CDK2-cycE1 TR-FRET (LANCE®)
as §2, with “anti-phospho-MBP.” for “anti-phospho-4E-BP1.”, “equation. Enzyme source of CDK2-cycE1 is ProQinase, catalog #: 0050-0055-1.” for “equation.”

[3] = molecular target: T3, Cyclin Dependent Kinase 4/Cyclin D3 (CDK4-cycD3) (Homo sapiens, UniProt P11802); assay: CDK4-cycD3 TR-FRET (LANCE) enzyme assay; format: biochemical; details: for Ki: enzymatic assay
T3 construct: purchased Carna Biosciences 04-105
Method: as §1
(iii) CDK4-cycD3 TR-FRET (LANCE®)
as §2

[4] = system: OVISE (JCRB1043, CCNE1-amplified); assay: OVISE EdU incorporation cell proliferation assay (CDK2-dependent); format: cell-based; details: for IC50: cellular assay, read-out: CDK2 OVISE IC50; for FS SKOV-3/OVISE: fold selectivity; for increased fold-selectivity SKOV-3/OVISE over Comparator C: (+) sign after FS SKOV-3/OVISE; for improvement in CDK2 OVISE cell potency over Comparator C: in brackets after OVISE IC50, Comparator C 5.5 μM
Method: (§3) (i) OVISE and SKOV-3 EdU Incorporation Cell Proliferation Assays
(§4) Ovarian cancer cell proliferation is measured by incorporation of EdU (5-ethynyl-2′-deoxyuridine) into newly synthesized DNA. CDK2-dependent proliferation is determined using OVISE (JCRB1043, CCNE1-amplified) while CDK4/6-dependent effect is determined with SKOV-3 (ATCC HTB-77) which is not CCNE1-amplified.
(§5) Cells are plated in 384-well plates in RPMI medium supplemented with 10% FBS. Compounds are added at desired concentrations with a final DMSO content of 0.5%, and cells incubated at 37° C./5% CO2 for 16 hours. EdU (Life Technologies) is added to a final concentration of 0.5 μM and incubation continued for 8 hours, followed by fixation with 4% paraformaldehyde. […] Images are acquired using Yokogawa CQ1 imaging cytometer with a 10×objective. […] The IC50 for inhibition of cell division is determined by fitting the fraction of EdU-positive cells as a function of compound dose using a 4-parameter logistic model.

[5] = system: SKOV-3 (ATCC HTB-77); assay: SKOV-3 EdU incorporation cell proliferation assay (CDK4/6-dependent); format: cell-based; details: for IC50: Homo sapiens, cellular assay, read-out: CDK4/6 SKOV-3 IC50
Method: as §3, §4, §5

[6] = Table O, enzymatic assay, read-out: CDK2 Ki
[7] = Table O, enzymatic CDK1 Ki over CDK2 Ki
[8] = Table O, enzymatic CDK4 Ki over CDK2 Ki
[9] = Table O, cellular SKOV-3 IC50 over OVISE IC50
[10] = Table Q, enzymatic assay, read-out: CDK2 Ki
[11] = Table R, fold selectivity, enzymatic Ki ratio
[12] = read-out: CDK2 activity / potency (enzymatic assay)

T3 sequence (P11802 whole entry): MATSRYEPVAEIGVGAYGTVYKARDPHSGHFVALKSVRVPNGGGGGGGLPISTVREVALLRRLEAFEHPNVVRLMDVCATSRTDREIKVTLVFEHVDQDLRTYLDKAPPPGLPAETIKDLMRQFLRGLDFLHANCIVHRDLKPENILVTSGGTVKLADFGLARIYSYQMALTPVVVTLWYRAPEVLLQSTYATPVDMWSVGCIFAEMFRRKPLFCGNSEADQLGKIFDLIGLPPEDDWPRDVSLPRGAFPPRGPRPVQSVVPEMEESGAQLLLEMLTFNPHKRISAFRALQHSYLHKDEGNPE
T3 sequence (P30281 whole entry partner): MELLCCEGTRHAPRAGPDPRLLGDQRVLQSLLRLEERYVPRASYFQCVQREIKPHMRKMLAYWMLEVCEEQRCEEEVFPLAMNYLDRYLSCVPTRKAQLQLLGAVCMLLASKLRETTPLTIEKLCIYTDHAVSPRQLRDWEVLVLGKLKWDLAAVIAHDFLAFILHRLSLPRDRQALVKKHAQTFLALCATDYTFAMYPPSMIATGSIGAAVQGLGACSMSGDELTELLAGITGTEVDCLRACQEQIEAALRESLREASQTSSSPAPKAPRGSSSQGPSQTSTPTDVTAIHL
T1 sequence (P06493 whole entry): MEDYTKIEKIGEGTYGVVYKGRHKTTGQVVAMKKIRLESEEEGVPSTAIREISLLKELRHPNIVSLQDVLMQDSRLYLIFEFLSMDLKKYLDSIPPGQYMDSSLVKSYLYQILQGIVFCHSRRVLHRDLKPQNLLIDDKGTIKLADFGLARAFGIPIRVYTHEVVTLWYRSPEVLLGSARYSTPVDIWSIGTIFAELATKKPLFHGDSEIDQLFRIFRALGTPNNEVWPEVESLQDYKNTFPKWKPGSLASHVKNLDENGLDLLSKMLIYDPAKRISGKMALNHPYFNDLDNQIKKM
T1 sequence (P20248 whole entry partner): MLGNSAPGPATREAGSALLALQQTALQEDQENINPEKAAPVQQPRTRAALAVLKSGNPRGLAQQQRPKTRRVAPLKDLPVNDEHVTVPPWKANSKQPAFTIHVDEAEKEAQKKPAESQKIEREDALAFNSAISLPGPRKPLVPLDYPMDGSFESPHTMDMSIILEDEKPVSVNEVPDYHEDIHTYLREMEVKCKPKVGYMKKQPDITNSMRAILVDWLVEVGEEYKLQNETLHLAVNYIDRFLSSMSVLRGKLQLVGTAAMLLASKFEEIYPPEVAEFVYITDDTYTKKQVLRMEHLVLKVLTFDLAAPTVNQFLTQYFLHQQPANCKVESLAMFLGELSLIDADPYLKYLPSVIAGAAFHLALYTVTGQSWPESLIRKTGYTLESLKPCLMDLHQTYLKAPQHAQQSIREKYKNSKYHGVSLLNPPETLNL

Ki ([1]; Table O) [nM]	Ki [2, 6] [nM]	FS CDK1/CDK2 [2, 7]	FS CDK4/CDK2 [2, 8]	Ki ([3]; Table O) [nM]	IC50 ([5]; SK-OV-3, Table O) [µM]	Structure (SMILES)	IC50 ([4]; Table O) [nM]	FS SKOV-3/OVISE [4, 9]	other results
370	23	16	52	1200	> 20	Cc1ncccc1Nc1cc([C@H]2CC[C@@H](OC(=O)NC3CC(O)C3)C2)[nH]n1 (stereo partly drawn) [Example 7D, (1R,3S)-3-(3-((2-methylpyridin-3-yl)amino)-1H-pyrazol-5-yl)cyclopentyl ((1s,3s)-3-hydroxycyclobutyl)carbamate]	1600	>13	
3300	300	11	22	6500	> 20	Cc1ncccc1Nc1cc([C@H]2CC[C@@H](OC(=O)N[C@@H]3CCN(C)C3)C2)[nH]n1 [Example 7B, (1R,3S)-3-(3-((2-methylpyridin-3-yl)amino)-1H-pyrazol-5-yl)cyclopentyl ((R)-1-methylpyrrolidin-3-yl)carbamate]	17000	>1.2	
890	12	74	92	1100	> 20	O=C(NC12CC(C1)C2)O[C@@H]1CC[C@H](c2cc(Nc3ccnnc3C3CC3)n[nH]2)C1 [Example 11, (1R,3S)-3-(3-((3-cyclopropylpyridazin-4-yl)amino)-1H-pyrazol-5-yl)cyclopentyl bicyclo[1.1.1]pentan-1-ylcarbamate]	2600	>7.7	
						CC(C)(C)NC(=O)O[C@@H]1CC[C@H](c2cc(Nc3ccc4c(n3)CCC4)n[nH]2)C1 [Comparator D, (1R,3S)-3-(3-((6,7-dihydro-5H-cyclopenta[b]pyridin-2-yl)amino)-1H-pyrazol-5-yl)cyclopentyl tert-butylcarbamate, reference compound]			Ki ([1]; Table R): 54 nM; FS CDK1/CDK2 [1, 11]: 20; Ki [2, 12]: 2.7 nM; Ki ([3]; Table R): 5.2 nM; FS CDK4/CDK2 [3, 11]: 1.9; IC50 ([4]; Table R): 3800 nM; IC50 ([5]; SK-OV-3, Table R): 1.8 µM; FS SKOV-3/OVISE ([5]; Table R, fold selectivity, cellular IC50 ratio): 0.47
8800	480	18	31	15000	> 20	CNc1ncc(Nc2cc([C@H]3CC[C@@H](OC(=O)NC(C)C)C3)[nH]n2)cn1 [Example 2GG, (1R,3S)-3-(3-((2-(methylamino)pyrimidin-5-yl)amino)-1H-pyrazol-5-yl)cyclopentyl isopropylcarbamate]	> 20000	1	
80	5	16	92	460	> 20	CNC(=O)c1ncc(Nc2cc([C@H]3CC[C@@H](OC(=O)NC45CC(C4)C5)C3)[nH]n2)c(C)n1 [Example 9F, (1R,3S)-3-(3-((4-methyl-2-(methylcarbamoyl)pyrimidin-5-yl)amino)-1H-pyrazol-5-yl)cyclopentyl bicyclo[1.1.1]pentan-1-ylcarbamate]	1200	>17	
240	8.3	29	88	730	> 20	CC1(NC(=O)O[C@@H]2CC[C@H](c3cc(Nc4cccnn4)n[nH]3)C2)COC1 [Example 3G, (1R,3S)-3-(3-(pyridazin-3-ylamino)-1H-pyrazol-5-yl)cyclopentyl (3-methyloxetan-3-yl)carbamate]	750	>27	
11000	270	41	185		> 20	Cn1c(Nc2cc([C@H]3CC[C@@H](OC(=O)NC(C)(C)C)C3)[nH]n2)ccnc1=O [Example 8A, (1R,3S)-3-(3-((3-methyl-2-oxo-2,3-dihydropyrimidin-4-yl)amino)-1H-pyrazol-5-yl)cyclopentyl tert-butylcarbamate]	20000	>1	
				150	3	Cn1c(Nc2cc([C@H]3CC[C@@H](OC(=O)NC45CC(C4)C5)C3)[nH]n2)nccc1=O [Example 9A, (1R,3S)-3-(3-((1-methyl-6-oxo-1,6-dihydropyrimidin-2-yl)amino)-1H-pyrazol-5-yl)cyclopentyl bicyclo[1.1.1]pentan-1-ylcarbamate]			

Structure (SMILES)	Ki ([1]; Table O) [nM]	Ki [2, 6] [nM]	FS CDK1/CDK2 [2, 7]	FS CDK4/CDK2 [2, 8]	Ki ([3]; Table O) [nM]	IC50 ([5]; SK-OV-3, Table O) [µM]	IC50 ([4]; Table O) [nM]	FS SKOV-3/OVISE [4, 9]	other results
Cc1ncncc1Nc1cc([C@H]2CC[C@@H](OC(=O)NC(C)C)C2)[nH]n1 [Example 2U, (1R,3S)-3-(3-((4-methylpyrimidin-5-yl)amino)-1H-pyrazol-5-yl)cyclopentyl isopropylcarbamate]	560	15	37	120	1800	> 20	400	>50	improvement in potency against CDK2 (Ki) over Comparator C [2]: 2 fold; increased fold-selectivity CDK4/CDK2 over Comparator C ([2]; Table Q): (+) (The (+) sign in Table Q signifies desirable increased fold-selectivity of the exemplary compounds over Comparator C); Ki [2, 10]: 15 nM; FS CDK1/CDK2 ([2]; Table Q, enzymatic): 37; FS CDK4/CDK2 ([2]; Table Q, enzymatic): 120; increased fold-selectivity SKOV-3/OVISE over Comparator C ([4]; Table Q): (+) (The (+) sign in Table Q signifies desirable increased fold-selectivity of the exemplary compounds over Comparator C); FS SKOV-3/OVISE ([4]; Table Q, cellular): > 50; improvement in CDK2 OVISE cell potency over Comparator C ([4]; Table Q): 13.8 fold; IC50 ([5]; SK-OV-3, Table Q): > 20 µM
CC(C)NC(=O)O[C@@H]1CC[C@H](c2cc(Nc3cc(=O)[nH]cn3)n[nH]2)C1 [Example 2CC, (1R,3S)-3-(3-((6-oxo-1,6-dihydropyrimidin-4-yl)amino)-1H-pyrazol-5-yl)cyclopentyl isopropylcarbamate]	34	0.33	100	390	130	> 20	2000	>10	improvement in potency against CDK2 (Ki) over Comparator C [2]: 97 fold; increased fold-selectivity CDK1/CDK2 over Comparator C ([2]; Table Q, (+) sign after FS CDK1/CDK2): (+) (The (+) sign in Table Q signifies desirable increased fold-selectivity of the exemplary compounds over Comparator C); increased fold-selectivity CDK4/CDK2 over Comparator C ([2]; Table Q): (+) (The (+) sign in Table Q signifies desirable increased fold-selectivity of the exemplary compounds over Comparator C); Ki [2, 10]: 0.33 nM; FS CDK1/CDK2 ([2]; Table Q, enzymatic): 100; FS CDK4/CDK2 ([2]; Table Q, enzymatic): 390; Ki [2, 12]: ≤ 1 nM; increased fold-selectivity SKOV-3/OVISE over Comparator C ([4]; Table Q): (+) (The (+) sign in Table Q signifies desirable increased fold-selectivity of the exemplary compounds over Comparator C); FS SKOV-3/OVISE ([4]; Table Q, cellular): > 10; improvement in CDK2 OVISE cell potency over Comparator C ([4]; Table Q): 2.8 fold; IC50 ([5]; SK-OV-3, Table Q): > 20 µM

Reference: patent US20240425478A1, “CYCLOPENTYLPYRAZOLE CDK2 INHIBITORS” (Genentech, Inc., priority 2021, published 2024)
